Patent US8293738B2, “Indazole inhibitors of kinase” (Abbott Laboratories, priority 2010, dated 2012)

Key:
[1] = target: T1, Aurora B (Homo sapiens, UniProt Q96GD4); experiment: Aurora B enzyme assay (time-resolved fluorescence, histone H3 peptide); assay type: biochemical; details: 1 mM ATP, 1 hour
T1 construct: Active Aurora B enzyme (recombinant residues 1-344)
Description: To determine Aurora B activity of representative compounds of the invention, Active Aurora B enzyme (recombinant residues 1-344) and INCENP (recombinant GST fusion protein (Upstate)) were incubated in wells of a 384 well plate with biotinylted histone H3 peptide residues 1-21 (Upstate), 1 mM ATP, and various concentrations of inhibitors in a HEPES buffer, pH 7.4 containing MgCl2, sodium othrovanadate, and Triton X-100. After 1 hour, the reaction was stopped with EDTA and anti-phospho-histone H3 Europium Cryptate (Cis-Bio) and SA-APC (Phycolink, Prozyme) were added to detect the phosphopeptide. The amount of phosphorylation was determined by the time-resolved fluorescence ratio of signals at 665 nm and 615 nm. The IC50's were calculated by an exponential fit of the inhibition values with the inhibitor concentrations using Assay Explorer software.

[2] = target: T2, Aurora A (Homo sapiens, UniProt O14965); experiment: Aurora A enzyme assay (time-resolved fluorescence, STK substrate-2); assay type: biochemical; details: 1 mM ATP, 1 hour
T2 sequence (O14965 1-403): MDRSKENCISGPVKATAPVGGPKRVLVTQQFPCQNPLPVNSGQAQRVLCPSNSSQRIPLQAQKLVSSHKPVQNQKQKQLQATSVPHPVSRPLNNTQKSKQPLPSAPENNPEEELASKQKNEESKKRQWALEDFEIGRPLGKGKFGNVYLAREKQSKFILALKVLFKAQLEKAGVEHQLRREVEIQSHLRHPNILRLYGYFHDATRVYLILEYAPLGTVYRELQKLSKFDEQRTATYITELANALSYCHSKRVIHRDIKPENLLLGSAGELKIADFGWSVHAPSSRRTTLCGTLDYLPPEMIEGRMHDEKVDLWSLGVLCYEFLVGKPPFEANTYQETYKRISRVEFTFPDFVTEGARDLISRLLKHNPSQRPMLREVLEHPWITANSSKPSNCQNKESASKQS
Description: To determine Aurora A and C activity of representative compounds of the invention, Active Aurora A or C enzyme was incubated in wells of a 384 well plate with biotinylated STK substrate-2 (Upstate), 1 mM ATP, and various concentrations of inhibitors in a Hepes buffer, pH 7.4 containing MgCl2, sodium othrovanadate, and Triton X-100. After 1 hour, the reaction was stopped with EDTA and anti-phospho-STK antibody Europium Cryptate (Upstate) and SA-XL665 (Upstate) were added to detect the phosphopeptide. The amount of phosphorylation was determined by the time-resolved fluorescence ratio of signals at 665 nm and 615 nm. The IC50s were calculated by an exponential fit of the inhibition values with the inhibitor concentrations using Assay Explorer software.

[3] = target: T3, KDR (Homo sapiens, UniProt P35968); experiment: KDR cell assay; assay type: cell-based
Target sequence in this assay (P35968 20-1356, species assumed): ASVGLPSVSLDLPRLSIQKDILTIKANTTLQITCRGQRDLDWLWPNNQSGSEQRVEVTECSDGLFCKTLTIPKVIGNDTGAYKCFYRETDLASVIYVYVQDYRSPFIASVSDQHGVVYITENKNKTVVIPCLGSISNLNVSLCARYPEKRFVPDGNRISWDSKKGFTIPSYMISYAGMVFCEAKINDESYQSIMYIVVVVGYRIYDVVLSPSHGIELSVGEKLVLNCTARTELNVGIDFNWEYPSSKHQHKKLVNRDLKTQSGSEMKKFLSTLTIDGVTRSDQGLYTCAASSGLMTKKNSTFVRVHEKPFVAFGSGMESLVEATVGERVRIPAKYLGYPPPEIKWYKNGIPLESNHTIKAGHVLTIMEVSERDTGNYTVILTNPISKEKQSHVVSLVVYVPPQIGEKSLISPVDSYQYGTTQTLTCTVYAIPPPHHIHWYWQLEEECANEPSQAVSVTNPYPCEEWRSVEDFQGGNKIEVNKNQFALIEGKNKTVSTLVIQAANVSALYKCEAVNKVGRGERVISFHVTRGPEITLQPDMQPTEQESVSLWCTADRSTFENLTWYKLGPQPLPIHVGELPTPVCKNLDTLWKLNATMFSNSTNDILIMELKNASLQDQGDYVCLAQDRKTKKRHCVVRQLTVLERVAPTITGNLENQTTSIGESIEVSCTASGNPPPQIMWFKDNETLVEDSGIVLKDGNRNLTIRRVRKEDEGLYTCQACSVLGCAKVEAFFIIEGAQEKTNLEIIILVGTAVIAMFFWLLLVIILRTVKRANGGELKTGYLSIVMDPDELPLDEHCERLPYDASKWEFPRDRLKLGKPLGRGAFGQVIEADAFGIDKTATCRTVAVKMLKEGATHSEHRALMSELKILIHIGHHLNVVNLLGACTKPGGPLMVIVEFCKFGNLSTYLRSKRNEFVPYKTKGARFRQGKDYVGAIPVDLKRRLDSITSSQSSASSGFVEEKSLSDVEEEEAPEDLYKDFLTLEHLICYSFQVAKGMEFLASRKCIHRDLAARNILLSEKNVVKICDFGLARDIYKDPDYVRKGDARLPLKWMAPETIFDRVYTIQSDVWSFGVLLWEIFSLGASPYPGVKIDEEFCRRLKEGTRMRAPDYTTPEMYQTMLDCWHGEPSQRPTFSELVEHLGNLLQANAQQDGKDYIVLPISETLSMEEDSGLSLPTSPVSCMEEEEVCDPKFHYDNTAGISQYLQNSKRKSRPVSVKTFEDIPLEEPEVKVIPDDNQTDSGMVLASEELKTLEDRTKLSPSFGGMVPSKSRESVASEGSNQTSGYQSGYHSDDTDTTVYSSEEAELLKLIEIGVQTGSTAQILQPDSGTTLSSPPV

[4] = system: H1299 cells (Human Non-Small Cell Lung Carcinoma); experiment: Induction of polyploidy in H1299 cells, high content analysis; assay type: cell-based; details: NCI-H1299 cells, 48 hours, polyploid = nuclear area >750μ2, read-out: Polyploid HCA IC50
Description: To determine the induction of polyploidy in H1299 cells (Human Non-Small Cell Lung Carcinoma), NCI-H1299 were seeded (4K/well) into 96-well culture plates (tissue culture grade, black, flat-clear bottom) and incubated overnight to produce cell-to-plate adherance Inhibitors at varying concentrations were added into duplicate wells containing cells and culture media (RPMI 1640, 10% fetal calf serum) and incubated at 37 C for 48 hours. The plates were then washed with PBS and the adherent cells fixed by incubating with 3% formalin for 1 hour. After washing four times with PBS, the cells were then stained with Hoechst and subjected to fluorescent (3601/460e) microscopic high content analysis to determine the effect of inhibitors on nuclear size. Polyploid cells (>4N) were defined as those having nuclear area >750μ2. […]

[5] = target: T3, KDR; experiment: KDR HTRF in vitro kinase assay; assay type: biochemical; parameters: purified enzyme (His6-KDR 789-1354, MW 63 kD); details: 1 mM ATP, 60 minutes
Description: To determine the activity of the various kinases, a homogenous time-resolved fluorescence (HTRF) in vitro kinase assay was used. (Mathis, G., HTRF(R) Technology. J Biomol Screen, 1999. 4(6): p. 309-314; Alfred J. Kolb, Paul V. Kaplita, David J. Hayes, Young-Whan Park, Christine Pernell, John S. Major and Gerard Mathis, Drug Discovery Today, 1998, 3, 333-342.)
For example for KDR, 7 ng/well of purified enzyme (His6-KDR 789-1354, MW 63 kD) was mixed with 0.5 μM N-biotinylated substrate (Biotin-Ahx-AEEEYFFLA-amide (SEQ. ID. 1)), various concentrations of inhibitor in reaction buffer (50 mM HEPES, pH 7.1, mM MgCl2, 2 mM MnCl2, 0.1% BSA and 1 mM DTT, […] final volume), ATP (1 mM final conc.) in a black 384-well plate. After 60 minutes incubation at room temperature, the reaction was quenched by addition of a buffered EDTA solution (final approximate concentrations: 30 mM EDTA, 0.1% BSA, 0.1% Triton X-100 and 0.24M KF) and a solution of revelation agents (to give 0.084 ng/well streptavidin-XL-665 (Cis-Bio) and 6.5 ng/well antiphsophotyrosine mAb PT66-K Europium kryptate) was added to the reaction mixture. The quenched reaction was allowed to stand at room temperature for 3 hours and was then read in a time-resolved fluorescence detector (InVision, Perkin-Elmer) at 620 nm and 665 nm sequentially with excitation. The ratio between the signal of 620 nm and 665 nm was used in the calculation of the IC50.
Target sequence in this assay (P35968 789-1354): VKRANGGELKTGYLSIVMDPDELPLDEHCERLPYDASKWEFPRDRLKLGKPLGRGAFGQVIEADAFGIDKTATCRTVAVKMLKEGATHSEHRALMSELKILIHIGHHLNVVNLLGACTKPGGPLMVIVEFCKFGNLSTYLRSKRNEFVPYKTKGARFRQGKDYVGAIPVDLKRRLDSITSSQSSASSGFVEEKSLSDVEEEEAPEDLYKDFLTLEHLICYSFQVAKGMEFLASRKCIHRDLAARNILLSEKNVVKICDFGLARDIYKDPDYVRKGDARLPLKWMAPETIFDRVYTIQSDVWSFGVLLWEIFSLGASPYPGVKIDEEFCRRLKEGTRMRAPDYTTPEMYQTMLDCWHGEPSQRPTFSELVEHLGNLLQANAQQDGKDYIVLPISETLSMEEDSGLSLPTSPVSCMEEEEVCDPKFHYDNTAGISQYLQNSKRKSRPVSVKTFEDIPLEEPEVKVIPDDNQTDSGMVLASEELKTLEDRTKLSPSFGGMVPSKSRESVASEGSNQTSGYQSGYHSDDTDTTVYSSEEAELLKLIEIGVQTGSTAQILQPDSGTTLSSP

T1 sequence (Q96GD4 whole entry, the tested form may be a part): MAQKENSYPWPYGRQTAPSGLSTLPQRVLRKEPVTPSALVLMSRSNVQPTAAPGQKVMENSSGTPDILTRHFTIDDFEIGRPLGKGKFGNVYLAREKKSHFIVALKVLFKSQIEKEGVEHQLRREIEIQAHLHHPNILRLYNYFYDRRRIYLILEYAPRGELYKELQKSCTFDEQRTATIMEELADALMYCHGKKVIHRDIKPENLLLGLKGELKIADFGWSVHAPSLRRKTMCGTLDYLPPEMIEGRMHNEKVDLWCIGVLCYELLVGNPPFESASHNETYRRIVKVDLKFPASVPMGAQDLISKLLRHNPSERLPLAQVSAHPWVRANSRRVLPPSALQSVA
T1 sequence (Q9NQS7 826-918 partner limits assumed): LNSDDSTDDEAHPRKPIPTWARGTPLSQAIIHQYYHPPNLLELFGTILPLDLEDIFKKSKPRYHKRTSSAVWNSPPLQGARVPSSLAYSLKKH

Row | SMILES | IC50 [1] | IC50 [2] | IC50 [3] | IC50 [4] | IC50 [5]
1 | Cn1cc(-c2n[nH]c3cc(-c4ccc(NC(=O)Nc5cccc(F)c5)cc4)ccc23)cn1 [Example 1, N-(3-fluorophenyl)-N′-{4-[3-(1-methyl-1H-pyrazol-4-yl)-1H-indazol-6-yl]phenyl}urea] | 19.2 nM | 371 nM | 87.1 nM | 1 nM | 54.9 nM
2 | Cn1cc(-c2n[nH]c3cc(-c4ccc(NC(=O)Nc5ccccc5C(F)(F)F)cc4)ccc23)cn1 [Example 26, N-{4-[3-(1-methyl-1H-pyrazol-4-yl)-1H-indazol-6-yl]phenyl}-N′-[2-(trifluoromethyl)phenyl]urea] | 62.3 nM | > 12500 nM | – | 13 nM | 325 nM
3 | O=C(Nc1ccc(-c2ccc3c(-c4cnn(CCO)c4)n[nH]c3c2)cc1)Nc1cccc(F)c1 [Example 10, N-(3-fluorophenyl)-N′-(4-{3-[1-(2-hydroxyethyl)-1H-pyrazol-4-yl]-1H-indazol-6-yl}phenyl)urea] | 23.6 nM | 294 nM | 206 nM | 43 nM | 51.1 nM
4 | Cc1cc(NC(=O)Nc2ccc(-c3ccc4c(-c5cnn(C)c5)n[nH]c4c3)cc2)no1 [Example 30, N-(5-methylisoxazol-3-yl)-N′-{4-[3-(1-methyl-1H-pyrazol-4-yl)-1H-indazol-6-yl]phenyl}urea] | 10.3 nM | 299 nM | 123 nM | 1 nM | 32.2 nM
5 | Cc1cccc(NC(=O)Nc2ccc(-c3ccc4c(-c5cnn(C)c5)n[nH]c4c3)cc2)c1 [Example 2, N-(3-methylphenyl)-N′-{4-[3-(1-methyl-1H-pyrazol-4-yl)-1H-indazol-6-yl]phenyl}urea] | 17 nM | > 12500 nM | 46 nM | 6 nM | 27.4 nM
6 | Cc1cccc(NC(=O)Nc2ccc(-c3ccc4c(-c5cnn[nH]5)n[nH]c4c3)cc2)c1 [Example 3, N-(3-methylphenyl)-N′-{4-[3-(1H-1,2,3-triazol-5-yl)-1H-indazol-6-yl]phenyl}urea] | 40.5 nM | 2490 nM | 316 nM | 35 nM | 45 nM
7 | Cn1cc(-c2n[nH]c3cc(-c4ccc(NC(=O)Nc5cccc(Cl)c5)cc4)ccc23)cn1 [Example 22, N-(3-chlorophenyl)-N′-{4-[3-(1-methyl-1H-pyrazol-4-yl)-1H-indazol-6-yl]phenyl}urea] | 32.5 nM | 267 nM | 47.5 nM | 1 nM | 14.8 nM
8 | O=C(Nc1ccc(-c2ccc3c(-c4cnn[nH]4)n[nH]c3c2)cc1)Nc1cccc(F)c1 [Example 21, N-(3-fluorophenyl)-N′-{4-[3-(1H-1,2,3-triazol-5-yl)-1H-indazol-6-yl]phenyl}urea] | 58.3 nM | 10200 nM | – | 128 nM | 154 nM
9 | O=C(Nc1ccc(-c2ccc3c(-c4ccn[nH]4)n[nH]c3c2)cc1)Nc1cccc(F)c1 [Example 8, N-(3-fluorophenyl)-N′-{4-[3-(1H-pyrazol-5-yl)-1H-indazol-6-yl]phenyl}urea] | 23.3 nM | 3400 nM | – | 12 nM | 525 nM
10 | Cn1cc(-c2n[nH]c3cc(-c4ccc(NC(=O)Nc5ccc(C(F)(F)F)cc5)cc4)ccc23)cn1 [Example 19, N-{4-[3-(1-methyl-1H-pyrazol-4-yl)-1H-indazol-6-yl]phenyl}-N′-[4-(trifluoromethyl)phenyl]urea] | 108 nM | 10800 nM | 216 nM | – | 45.1 nM
11 | Cn1cc(-c2n[nH]c3cc(-c4ccc(NC(=O)Nc5ccc(Cl)cc5)cc4)ccc23)cn1 [Example 20, N-(4-chlorophenyl)-N′-{4-[3-(1-methyl-1H-pyrazol-4-yl)-1H-indazol-6-yl]phenyl}urea] | 24.7 nM | > 12500 nM | – | < 1 nM | 122 nM
